In patent publication US8790883B2, “Methods of identifying NF-κB inhibitors” (priority 2003, dated 2014):
* marks the point of attachment. BODIPYFLEthylmaleimide = Cc1cc(C)n2c1C=C1C=CC(CCC(=O)NCCN3C(=O)CC(*)C3=O)=[N+]1[B-]2(F)F

Assays:
[1] = Binding of NLM peptides, Hill coefficient calculation of cooperativity indices
Description: The present inventors compared NLM-DR to the corresponding NLM peptide by measuring the respective cooperativity indices, which evidence an advantage of NLM-DR mutated peptide over the wild-type.
The calculation of the “cooperativity indice” by means of Hill coefficient is based on the following formula Boundmax×L^n/(KD^n+L^n)
Wherein • Boundmax is the maximum concentration of the bound ligand, • L is the concentration of the free ligand, • n is the cooperativity indice and • KD, is the affinity constant of the ligand by the protein.

[2] = Circular dichroism studies of helix stability; assay type: physicochemical
Description: From circular dichroism studies (CD), it appears that CC2 and LZ peptides adopt a helicoidal structure, depending on their concentration. […] RMN and Rayon X Diffraction studies have confirmed the structure of CC2.

[3] = test system: LPS-induced NF-κB activation; assay: NF-κB inhibition assay, first procedure: LPS-induced NF-κB dependent β-galactosidase reporter in 70Z/3-C3 cells; assay type: cell-based, murine
Description: The resulting cell line, 70Z3-C3, was incubated for 2 hours in the absence or in the presence of 20 μM of antennapedia peptide (Ant), or BODIPY-labeled antennapedia peptide (BODIPY-Ant), or BODIPY-labeled antennapedia peptide coupled to CC2 (BODIPY-Ant-CC2) or LZ (BODIPY-Ant-LZ) peptides, After peptide internalization, cells were treated for 5 hours with LPS (3 μg/ml, (+) in left panel) or untreated (right panel and (−) in left panel) and the NF-κB activity was measured by β-galactosidase assay. Error bars represent the standard deviation of three separate experiments. (B) Concentration dependence of inhibition of LPS-induced NF-κB activation by BODIPY-Ant-CC2 peptide (left panel) or BODIPY-Ant-LZ peptide (right panel). Cells were treated as in (A) but with different concentration of peptide as indicated. The potential of each peptide to inhibit LPS-induced NF-κB activation was measured by determining the IC50 value that correspond to 50% inhibition of LPS-induced NF-κB activation as compared to the control (no peptide) (C). (D) Effect of the N-fusion sequence of antennapedia on the inhibition of NF-κB activation. Control (no peptide) or CC2, or LZ peptides, with (BODIPY-ANT-CC2, BODIPY-ANT-LZ) or without the antennapedia sequence at the N-terminus (CC2, LZ) were incubated for 2 hours with 70Z3-C3 cells followed with (+) or without (−) the LPS-treatment for 3 hours. NF-κB activity was then measured by β-galactosidase assay.
In a first procedure 2.2×10^5 70Z/3-C3 cells in 220 μl of RPMI 1640 supplemented with 10% fetal calf serum (FCS) and 50 μM β-mercaptoethanol were placed in a 96-well plate and incubated with various concentrations of peptide (0 to 20 μM) at 37° C. in 5% CO2 incubator. After two hours an equal portion (100 μl) of each cell sample transferred in two wells containing each 10^5 cells. One aliquot of cells was then treated for 5 hours with lipopolysaccharides from Salmonella abortus (Sigma) at 0.5 μg/ml final concentration, and the other one left-treated. After 5 hours, cells were centrifuged at 400×g for 5 min at room temperature and the cell pellets were washed three times with cold PBS (250 μl) by centrifugation. Cells were then lysed in the lysis buffer (25 mM tris-phosphate buffer at pH 7.8 containing 8 mM magnesium chloride, 1 mM dithioerythreitol, 1% Triton X-100, 15% glycerol and a protease inhibitor mixture (Roche)), and samples were centrifuged at 4° C. for 20 min to clarify the lysate. The supernatant was then kept on ice, and 30 μl was then assayed to measure the β-galactosidase activity with a plate luminometer (Berthold) using the GALACTON-STAR™ as chemiluminescent substrate (BD Biosciences Clontech, Bronstein et al., 1989). Background of reaction was measured by mixing for 1 hour 30 μl of lysis buffer with the reaction buffer (196 μl) and the GALACTON-STAR™ substrate (4 μl) provided by BD Biosciences. In a second procedure and a more stringent assay, 70Z/3-C3 cells (2.2×105 in 220 μl medium) were centrifuged at 400×g at room temperature after peptide internalization for 2 hours, and cell pellets were washed three times with 200 μl of PBS by centrifugation. Cells were then diluted three times with complete medium, and allowed to grow for at least 24 hours. The following steps are identical to the first procedure.
To analyze the inhibition potential of LPS-induced NF-κB activation by cell permeable BODIPY-Ant-CC2 and BODIPY-Ant-LZ peptides, the present inventors stably transfected the murine pre-B 70Z3 cell line with p12XlacZ-kB, which bears the β-galactosidase reporter gene under the control of the NF-κB transcription factor.

[4] = test system: LPS-induced NF-κB activation; assay: More stringent NF-κB inhibition assay, second procedure: peptide internalization, washing, 24 h growth, then LPS; assay type: cell-based, murine; settings: 10 μM peptide, LPS 5 h after 24 h growth
Description: Left panels show a helical wheel diagram of CC2 (A) and LZ (B) peptides. The view is from the top the molecule. The (a) through (g) positions, which are an essential feature of coiled coil sequence (Vinson, 2002, Mol. Cell. Biol.) represent sequential positions in each peptide sequence. The first (a) and fourth (d) positions that are generally occupied by hydrophobic amino acids constitute the hydrophobic core for parallel as well as antiparallel-coiled coils. Mutations that were introduced in (a) positions of the CC2 variant (BODIPY-Ant-CC2 (Mu); shown as residues 6-40 of SEQ ID NO:3, with glycine mutations corresponding to residues 6-40 of SEQ ID NO:5) or in (d) positions of the LZ variant (BODIPY-Ant-(Mu) are shown. In the right panels, 70Z3-C3 cells were incubated for 2 hours in the absence (control) or in the presence of 10 μM of cell permeable wild type (BODIPY-Ant-CC2 (WT)) or mutant (BODIPY-Ant-CC2 (Mu)) CC2 peptides (A) or wild type (BODIPY-Ant-LZ (WT)) or mutant (BODIPY-Ant-(Mu)) LZ peptides (B). The cells were then extensively washed to remove the excess peptide which had not been internalized and the cells were then diluted three times and allowed to grow for 24 hours before treatment for 5 hours with (+) or without LPS (−). NF-κB activity was measured using the β-galactosidase assay. Error bars represent the standard deviation of two independent experiments.
(A) Sequence alignment of the NEMO-derived LZ (residues 301-336 of SEQ ID NO: 12) and the GCN4 peptides (residues 23-55 of SEQ ID NO:8). Both coiled-coil motifs were aligned using clustalX. Identical and similar amino acid residues (shaded) are indicated by (!) or (*), respectively. (B) Overview and helical wheel diagram of the GCN4 coiled-coil (top view). The amino-acid sequence of GCN4 is shown with its corresponding [a-g] positions and residues that differ from the corresponding NEMO-derived LZ sequence are boxed according to their degree of conservation. Identical (open square) and similar residues (open triangle) are indicated. […] NF-κB activity was measured using the b-galactosidase assay. […]

[5] = target: T1, CC2 peptide (minimal oligomerization domain of NEMO) (Mus musculus, UniProt O88522); assay: Fluorescence anisotropy titration with CC2 peptide; assay type: binding, murine
T1 construct: made in house; host or cells: chemical solid-phase synthesis (Fmoc/tBu), no expression host
T1 sequence (O88522 253-287): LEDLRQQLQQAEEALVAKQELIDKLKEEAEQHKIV
Description: (A) Direct titration of BODIPY-Ant-CC2 (1 μM) with CC2 by fluorescence anitropy. The concentration of CC2 was determined by amino acid analysis. Anisotropy values of BODIPY-Ant-CC2 in milliunits (mA) were plotted against an increasing concentration of the CC2 peptide. […] The two dashed lines represent a stoichiometric titration and intersect at an CC2 concentration of […]. Given the 1 μM concentration of the BODIPY-Ant-CC2, this gives a complex stoechiometrie of 0.8. (B) Direct titration of BODIPY-Ant-LZ (0.1 μM) with CC2 by fluorescence anitropy. […]
Anisotropy measurements were performed with a PTI QUANTAMASTER™ fluorometer equipped with polarizers for the excitation and emission beams. […] Steady-state fluorescence anisotropy was expressed as millianisotropy (mA) and was calculated according to the equations: (1) A=(IVV−GIVH)/(IVV+2GIVH); (2) G=IHV/IHH.; where A is anisotropy, G is a correction factor for wavelength-dependent distortion and I is the fluorescence intensity component (subscript referring to the vertical and horizontal positioning at the excitation and emission polarizers, respectively). […] The dissociation constant parameter was estimated by globally fitting the anisotropy data to binding isotherm equation as described in Agou et al. (J Biol Chem. 2004 Jul. 2; 279(27):27861-9) using KALEIDAGRAPH™ nonlinear regression software (Synergy Software, reading PA). […]

70Z/3-C3 cells = assay: FACS analysis of cellular uptake of BODIPY-labelled peptides; settings: 0.2, 2 or 20 μM, 5 h, 37° C.
Description: (A) Cellular delivery of NEMO peptides mediated by conjugation with the Antennapedia peptide.
0.5×10^6 70Z/3-C3 cells in 0.5 ml were incubated at 37° C. for different times and with various concentrations of peptides as indicated in the Figure legends. The cell suspension was centrifugated at 1,000×g at room temperature and the cell pellet was then washed three times with PBS buffer (1 ml), and finally was resuspended with 500 μl of PBS buffer containing 0.1% sodium azide. Fluorescence analysis was performed with a FACSCalibur (BD Biosciences) and a minimum of 15,000 events per sample was selected. All experiments were performed in duplicates.

| Affinity relative to wild-type NLM peptide, without accounting for cooperativity [1] | Substance | Helix stability by circular dichroism [2] | LPS-induced NF-κB activation in presence of peptide ([3]; 20 μM peptide 2 h, LPS (3 μg/ml) 5 h, 70Z3-C3 cells) | Reduction of NF-κB activity as compared with a control peptide ([3]; 20 μM peptide, B lymphocytes stimulated by LPS) | IC50 ([3]; 70Z3-C3 cells, peptide 2 h, then LPS 5 h, β-galactosidase assay, read-out: IC50, 50% inhibition of LPS-induced NF-κB activation as compared to the control (no peptide)) | Reduction of NF-κB activation [4] | Kd [5] | Binding stoichiometry of complex with CC2 ([5]; 1 μM BODIPY-Ant-CC2 titrated with CC2) | Dependency of intracellular concentration on incubated concentration (70Z/3-C3 cells) |
| --- | --- | --- | --- | --- | --- | --- | --- | --- | --- |
| 75 times | LKAQADIYKARFQAERHAREK [NLM-DR] | helix more stable than the wild-type peptide |  |  |  |  |  |  |  |
|  | Ac-C(BODIPYFLEthylmaleimide)RQIKIWFQNRRMKWKKSKGMQLEDLRQQLQQAEEALVAKQELIDKLKEEAEQHKIV-NH2 [BODIPY-Ant-CC2 (WT)] |  | decreased significantly | 70% | 22 µM | 1.7 fold | 15.2 µM | 0.8 | linear dependancy |
